Like-named read-outs stand apart in the source and are kept apart here.
Experiments:
human α2β2γ1 complex [1] = target: T1, human α2β2γ1 complex (Homo sapiens, UniProt P54619+P54646); experiment: AMPK assay using ATP or CoTP as co-substrate (GST-ACC1 phosphorylation); format: biochemical; conditions: for Km / estimated Vmax as phosphate donor: GST-ACC1 substrate; for Km: Mg2+ at constant 4.8 mM excess, read-out: Km as phosphate donor; for estimated Vmax as phosphate donor: Michaelis-Menten fit; for effect on allosteric activation by AMP: at high concentrations (5 mM); for allosteric activation: 30 μM AMP
T1 construct: made in house
Protocol: As ^32P-labelled CoTP was not available, the experiments in Figures 3C and 3D were performed using non-radioactive CoTP and utilized as co-substrate a construct of glutathione-S-transferase fused at the N-terminus of residues 60-94 of rat ACC1 ([Scott et al., 2002]), which includes the Ser79 phosphorylation site. Bacterially expressed GST-ACC (0.5 μg) was incubated for 10 min in a total volume of 25 μl with bacterially expressed human AMPK (30 ng of α2β2γ1 complex, previously phosphorylated on Thr172 using CaMKK2) with ATP or CoTP as indicated, and sufficient MgCl2 to maintain a constant 4.8 mM excess of [Mg^2+] over [ATP]. Phosphorylation of this substrate was detected using anti-pACC antibody and quantified using a LiCor Odyssey imager.

[2] = target: T2, AMPK complexes containing WT γ2 (Homo sapiens, UniProt Q9UGJ0); experiment: AMPK activity in anti-FLAG immunoprecipitates, HepG2 cells with FLAG-tagged WT AMPK-γ2; format: cell-based; conditions: 1 h, 300 μM cordycepin, 10 mM phenformin or 300 μM A-769662
T2 construct: expressed in transfected cells; host or cells: HepG2 (transient, Fugene 6)
Protocol: (§1) HepG2 cells ([…]) were cultured in Minimum Essential Medium (MEM) supplemented with 10% (v/v) FBS, 1% (v/v) non-essential amino acids and 1% (v/v) penicillin/streptomycin. Transient transfection of DNAs encoding FLAG-tagged AMPK-γ2 or an R531G mutant of AMPK-γ2 were carried out 36-48 hr prior to experiments using Fugene 6 according to manufacturers’ instructions. U2OS cells ([…]) were cultured in Dulbecco’s Modified Eagle’s Medium (DMEM) supplemented with 10% (v/v) FBS and 1% (v/v) penicillin/streptomycin.
(§2) HepG2 cells were transiently transfected with DNAs encoding FLAG-tagged wild type AMPK-γ2 or the R531G mutant, using Fugene 6 according to the manufacturers’ instructions. After transfection for 48 hr, cells were treated with various agents as described, and cell lysates prepared ([Hawley et al., 2018]). FLAG-tagged AMPK was then immunoprecipitated from 150 μg total protein by incubation at 4°C for 2 hr on a roller mixer with 9 μl of EZview Red anti-FLAG M2 affinity gel. After extensive washing, the immunoprecipitates were assayed for AMPK activity (50 μg per assay in a total volume of 50 μl) using the AMARA peptide (200 μM) as substrate in the presence of 200 μM AMP, 5 mM MgCl2 and 200 μM γ-^32P-ATP as described previously ([Fyffe et al., 2018]).

[3] = target: T3, AMPK complexes containing the R531G mutant (Homo sapiens, UniProt Q9UGJ0, R531G); experiment: AMPK activity in anti-FLAG immunoprecipitates, HepG2 cells with FLAG-tagged AMPK-γ2 R531G mutant; format: cell-based; conditions: 1 h, 300 μM cordycepin, 10 mM phenformin or 300 μM A-769662
T3 construct: expressed in transfected cells; host or cells: HepG2 (transient, Fugene 6)
Protocol: as §1, §2

AMPK = experiment: Effect of adenosine kinase and transport inhibitors on AMPK activation in HepG2 cells; format: cell-based, human; conditions: 1 μM ABT-702 or 0.5 μM dipyridamole; for effect of cordycepin to activate and phosphorylate AMPK: 300 μM cordycepin 1 h; for effects of AICA riboside on AMPK: 3 mM AICAR 1 h
Protocol: Endogenous AMPK in crude cell lysates was first immunoprecipitated using an equal mixture of anti-α1 and –α2 antibodies (150 μg protein) by incubation at 4°C for 2 hr on a roller mixer. After extensive washing, the immunoprecipitates were assayed for AMPK activity (50 μg per assay, total assay volume 50 μl) using the AMARA peptide (200 μM) as substrate in the presence of 200 μM AMP, 5 mM MgCl2 and 200 μM [γ-^32P]ATP ([Fyffe et al., 2018]).

[4] = tested on: AMPK purified from rat liver; experiment: Allosteric activation of purified rat liver AMPK (SAMS peptide, cell-free); format: biochemical
Protocol: AMPK (15 ng) purified from rat liver was assayed in solution using the SAMS peptide as substrate ([Fyffe et al., 2018]) in the presence of AMP or CoMP (concentrations specified in Figure legends), and either 5 mM MgCl2 and 200 μM [γ-^32P]ATP or 9.8 mM MgCl2 and 5 mM [γ-^32P]ATP, thus maintaining a constant excess of [Mg^2+] over [ATP] ([Storer and Cornish-Bowden, 1976]). Total assay volume was 25 μl.

human α2β2γ1 complex [5] = target: T1, human α2β2γ1 complex; experiment: Cell-free promotion of Thr172 phosphorylation by LKB1; format: biochemical; conditions: varying CoMP, 200 μM ATP
Protocol: These were as described previously ([Fyffe et al., 2018]) with some modifications. Bacterially expressed human AMPK (α2β2γ1 complex, unphosphorylated on Thr172, 500 ng) was incubated for 10 min in a total volume of 25 μl with 200 μM ATP, […] with/without the LKB1:STRAD:MO25 complex (10 ng), in the presence or absence of AMP (200 μM) or cordycepin as indicated. Aliquots were removed for Western blotting and AMPK assays.

rat liver AMPK = experiment: Cell-free inhibition of Thr172 dephosphorylation by PP2Cα; format: biochemical; conditions: fit of AMPK activity as a function of CoMP concentration; read-out: EC50 of protection against inactivation and Thr172 dephosphorylation by PP2Cα
Protocol: These were as described previously ([Fyffe et al., 2018]) with some modifications. Rat liver AMPK (12.5 μg/ml) was incubated in a shaking incubator at 30°C for 10 min in Hepes buffer (50 mM Na Hepes pH 7.4, 150 mM NaCl, 1 mM dithiothreitol, 0.02% (w/v) Brij-35) with MgCl2 and sufficient PP2Cα to yield about 70% inactivation in the absence of added nucleotide. Aliquots were removed for Western blotting and AMPK assay. Kinase assays were performed immediately after a further 100-fold dilution, which was sufficient to prevent dephosphorylation during the assay.

[6] = 200 μM ATP, for CoMP estimated with maximal activation constrained to 4.4-fold

T1 sequence (P54646 whole entry): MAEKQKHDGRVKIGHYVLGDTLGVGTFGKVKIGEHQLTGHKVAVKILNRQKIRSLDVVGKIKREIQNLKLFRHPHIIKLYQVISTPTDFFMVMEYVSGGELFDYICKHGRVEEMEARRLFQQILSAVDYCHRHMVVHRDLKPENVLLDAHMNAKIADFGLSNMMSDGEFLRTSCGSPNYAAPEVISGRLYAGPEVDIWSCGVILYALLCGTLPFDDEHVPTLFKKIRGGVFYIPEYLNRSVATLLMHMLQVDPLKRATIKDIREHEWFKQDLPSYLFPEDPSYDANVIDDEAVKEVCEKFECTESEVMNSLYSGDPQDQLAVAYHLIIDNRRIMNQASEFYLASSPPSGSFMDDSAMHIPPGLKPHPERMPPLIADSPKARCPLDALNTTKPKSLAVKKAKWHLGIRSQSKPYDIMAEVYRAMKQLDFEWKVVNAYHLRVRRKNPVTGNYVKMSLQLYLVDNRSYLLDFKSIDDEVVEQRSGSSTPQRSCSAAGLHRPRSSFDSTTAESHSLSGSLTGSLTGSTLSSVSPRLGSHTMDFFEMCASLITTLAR
T1 sequence (O43741 whole entry partner): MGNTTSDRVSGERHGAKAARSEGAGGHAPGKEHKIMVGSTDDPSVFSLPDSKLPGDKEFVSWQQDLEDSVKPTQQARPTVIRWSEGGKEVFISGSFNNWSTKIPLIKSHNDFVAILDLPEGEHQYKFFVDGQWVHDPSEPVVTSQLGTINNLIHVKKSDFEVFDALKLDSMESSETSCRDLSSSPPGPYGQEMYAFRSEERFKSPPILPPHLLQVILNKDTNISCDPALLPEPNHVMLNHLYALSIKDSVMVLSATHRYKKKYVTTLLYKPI
T1 sequence (P54619 whole entry): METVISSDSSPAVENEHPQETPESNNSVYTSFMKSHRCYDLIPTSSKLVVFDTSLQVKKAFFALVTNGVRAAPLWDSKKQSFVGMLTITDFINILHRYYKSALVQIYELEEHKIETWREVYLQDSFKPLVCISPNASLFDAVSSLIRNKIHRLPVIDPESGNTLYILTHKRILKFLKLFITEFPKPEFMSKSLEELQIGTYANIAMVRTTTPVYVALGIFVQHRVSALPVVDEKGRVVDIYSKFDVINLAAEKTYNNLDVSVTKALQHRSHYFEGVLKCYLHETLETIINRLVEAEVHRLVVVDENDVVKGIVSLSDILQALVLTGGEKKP
T2 sequence (Q9UGJ0 whole entry, one chain of several): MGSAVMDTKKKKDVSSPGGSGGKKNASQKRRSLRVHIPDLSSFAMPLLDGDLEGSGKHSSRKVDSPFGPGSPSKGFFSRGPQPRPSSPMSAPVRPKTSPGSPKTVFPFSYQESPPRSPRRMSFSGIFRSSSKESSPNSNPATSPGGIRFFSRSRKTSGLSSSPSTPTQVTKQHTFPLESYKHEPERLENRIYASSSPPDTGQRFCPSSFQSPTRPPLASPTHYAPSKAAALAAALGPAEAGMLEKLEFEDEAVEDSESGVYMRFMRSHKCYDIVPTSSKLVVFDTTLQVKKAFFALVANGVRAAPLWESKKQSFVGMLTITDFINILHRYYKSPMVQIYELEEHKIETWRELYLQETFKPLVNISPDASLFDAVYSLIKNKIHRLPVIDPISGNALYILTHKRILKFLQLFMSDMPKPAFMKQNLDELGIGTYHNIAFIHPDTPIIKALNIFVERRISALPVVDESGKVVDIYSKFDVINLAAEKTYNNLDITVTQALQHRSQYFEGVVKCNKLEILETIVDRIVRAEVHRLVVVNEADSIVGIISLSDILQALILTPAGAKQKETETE
T3 sequence (Q9UGJ0 whole entry R531G, one chain of several): as the sequence (Q9UGJ0 whole entry, one chain of several) above, with R531G counted along it

`Nc1ncnc2c1ncn2[C@@H]1O[C@H](COP(=O)(O)OP(=O)(O)OP(=O)(O)O)C[C@H]1O` [CoTP, cordycepin triphosphate] was tested, and the Km (human α2β2γ1 complex [1]) was 22 ± 3 µM, the “estimated Vmax as phosphate donor” value (human α2β2γ1 complex [1]) was 0.92 and the “effect on allosteric activation by AMP” value (human α2β2γ1 complex [1]) was “antagonize”.
With `Nc1ncnc2c1ncn2[C@@H]1O[C@H](COP(=O)(O)OP(=O)(O)OP(=O)(O)O)[C@@H](O)[C@H]1O` [ATP] the Km (human α2β2γ1 complex [1]) was 36 ± 3 µM, the “estimated Vmax as phosphate donor” value (human α2β2γ1 complex [1]) was 1.02 and the “effect on allosteric activation by AMP” value (human α2β2γ1 complex [1]) was “antagonize”.
For `N#Cc1c(O)c2c(-c3ccc(-c4ccccc4O)cc3)csc2[nH]c1=O` [A-769662], the “activation of AMPK complexes containing WT γ2” value [2] was “activated” and the “activation of AMPK complexes containing the R531G mutant” value [3] was “still activated”.
`OCCN(CCO)c1nc(N2CCCCC2)c2nc(N(CCO)CCO)nc(N3CCCCC3)c2n1` [dipyridamole] was tested, and the “effect of cordycepin to activate and phosphorylate AMPK” value (AMPK) was “blocked” and the “effects of AICA riboside on AMPK” value (AMPK) was “also blocked”.
`Nc1ncnc2nc(-c3ccc(N4CCOCC4)nc3)cc(-c3cccc(Br)c3)c12` [ABT-702, 4-amino-5-(3-bromophenyl)-7-(6-morpholinopyridin-3-yl)pyrido[2,3-d]pyrimidine] was tested, and the “effect of cordycepin to activate and phosphorylate AMPK” value (AMPK) was “blocked” and the “effects of AICA riboside on AMPK” value (AMPK) was “also blocked”.
In the case of `[H]/N=C(/N)N/C(=N/[H])NCCc1ccccc1` [phenformin], the “activation of AMPK complexes containing WT γ2” value [2] is reported as “activated” and the “activation of AMPK complexes containing the R531G mutant” value [3] is reported as “not activated”.
With `Nc1ncnc2c1ncn2[C@@H]1O[C@H](COP(=O)(O)O)[C@@H](O)[C@H]1O` [AMP, reference compound] the maximal allosteric activation ([4]; 200 μM ATP) was 4.4 ± 0.1 fold, the EC50 [4, 6] was 3.8 ± 0.2 µM and the IC50 ([4]; 200 μM ATP, read-out: IC50 (concentration giving half-maximal inhibition)) was 1600 ± 100 µM. For the same molecule, the allosteric activation (human α2β2γ1 complex [1]; ATP or CoTP concentrations increased to 5 mM) was “abolished” and the allosteric activation (human α2β2γ1 complex [1]; kinase assayed using either 200 μM ATP or CoTP as substrate) was 4 fold.
`Nc1ncnc2c1ncn2[C@@H]1O[C@H](COP(=O)(O)O)C[C@H]1O` [CoMP, cordycepin 5′-monophosphate] was tested, and the “activation and Thr172 phosphorylation of AMPK by LKB1” value (human α2β2γ1 complex [5]) was “promoted”, the “potency as an allosteric activator, less potent than AMP” value ([4]; 200 μM ATP) was “≈ 30 fold” and the IC50 ([4]; 200 μM ATP, estimated, maximal activation constrained to 4.4-fold, read-out: IC50 of inactivation) was 500 ± 180 µM. The EC50 [4, 6] was 120 ± 50 µM, the EC50 ([4]; 5 mM ATP, maximal activation constrained to 4.4-fold) was 1400 µM and the EC50 (rat liver AMPK) was 68 ± 12 µM.

From paper PMC7031697, “Mechanism of Activation of AMPK by Cordycepin” (Cell Chemical Biology, 2020)
